In US7244722B2, “Amino-substituted 1H-pyrazin-2-ones and 1H-quinoxalin-2-ones” (Biovitrum AB, priority 2002, dated 2007):
Counter-ions that a name gives are not always drawn.

Target: T1, human 5-HT2A receptor (Homo sapiens, UniProt P28223)
T1 construct: expressed in transfected cells
Experiment: 5-HT2A receptor affinity assay: competition with 3H-labeled LSD on membranes of transfected CHO cells
Conditions: displacement of 3H-LSD; membranes from transfected CHO cell line stably expressing the human 5-HT2A receptor; non-specific binding defined with mianserin (5 μM)
Protocol: The 5-HT2A receptor affinity of compounds in the Examples was determined in competition experiments, where the ability of each compound in serial dilution to displace ^3H-labeled lysergic diethyl amide (LSD), bound to membranes prepared from a transfected CHO cell line stably expressing the human 5-HT2A receptor protein, was measured after rapid filtration through glass fiber filters. Non-specific binding was defined using mianserin (5 μM). The 5-HT2A receptor affinity values are expressed as Ki values.

T1 sequence (P28223 whole entry): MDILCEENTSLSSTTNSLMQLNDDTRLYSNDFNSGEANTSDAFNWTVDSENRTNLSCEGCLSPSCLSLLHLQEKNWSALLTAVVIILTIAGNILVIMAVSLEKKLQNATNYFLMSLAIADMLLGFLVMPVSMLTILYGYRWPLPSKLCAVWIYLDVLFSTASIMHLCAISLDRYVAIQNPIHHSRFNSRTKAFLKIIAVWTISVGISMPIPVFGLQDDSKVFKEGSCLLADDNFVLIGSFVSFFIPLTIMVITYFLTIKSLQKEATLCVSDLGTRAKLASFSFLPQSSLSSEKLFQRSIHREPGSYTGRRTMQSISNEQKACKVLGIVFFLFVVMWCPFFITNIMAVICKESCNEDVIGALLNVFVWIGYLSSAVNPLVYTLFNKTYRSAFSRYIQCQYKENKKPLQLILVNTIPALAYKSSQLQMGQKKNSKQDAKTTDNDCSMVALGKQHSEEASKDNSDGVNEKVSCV

SMILES | Ki
CCCCOc1cccc(OCCn2ccnc(N3CCNCC3)c2=O)c1 [Example 11, 1-[2-(3-n-Butyloxyphenoxy)ethyl]-3-(1-piperazinyl)-2(1H)-pyrazinone] | 2.5 nM
O=c1c(N2CCNCC2)nccn1CCOc1ccc(F)c(F)c1F [Example 13, 3-(1-Piperazinyl)-1-[2-(2,3,4-trifluorophenoxy)ethyl]-2(1H)-pyrazinone] | 29 nM
O=c1c(N2CCNCC2)nccn1CCOc1cccc([N+](=O)[O-])c1 [Example 23, 1-[2-(3-Nitrophenoxy)ethyl]-3-(1-piperazinyl)-2(1H)-pyrazinone] | 13 nM
O=c1ccc2ccc(OCCn3ccnc(N4CCNCC4)c3=O)cc2o1 [Example 2, 1-{2-[(2-Oxo-2H-chromen-7-yl)oxy]ethyl}-3-(1-piperazinyl)-2(1H)-pyrazinone] | 152 nM
O=c1c(N2CCNCC2)nccn1CCOc1cc(F)c(F)cc1F [Example 3, 3-(1-Piperazinyl)-1-[2-(2,4,5-trifluorophenoxy)ethyl]-2(1H)-pyrazinone] | 2.2 nM

The next lines start with the values.

Ki | SMILES
8 nM | O=c1c(N2CCNCC2)nccn1CCOc1ccc(C(F)(F)F)cc1 [Example 29, 1-[2-(4-Trifluoromethylphenoxy)ethyl]-3-(1-piperazinyl)-2(1H)-pyrazinone]
0.15 nM | O=c1c(N2CCN(CCc3ccccc3)CC2)nccn1CCOc1cc(F)c(F)cc1F [Example 62, 3-[4-(2-Phenylethyl)piperazin-1-yl-]1-[2-(2,4,5-trifluorophenoxy)ethyl]pyrazin-2(1H)-one]
3.6 nM | O=C(c1ccccc1)c1cccc(OCCn2ccnc(N3CCNCC3)c2=O)c1 [Example 24, 1-[2-(3-Benzoylphenoxy)ethyl]-3-(1-piperazinyl)-2(1H)-pyrazinone]
4.4 nM | O=c1c(N2CCNCC2)nccn1CCOc1ccc(Oc2ccccc2)cc1 [Example 31, 1-[2-{4-Phenoxy-(phenoxy)}ethyl]-3-(1-piperazinyl)-2(1H)-pyrazinone]
1.4 nM | O=c1c(N2CCN(Cc3ccccc3)CC2)nccn1CCOc1cc(F)c(F)cc1F [Example 63, 3-(4-Benzylpiperazin-1-yl)-1-[2-(2,4,5-trifluorophenoxy)ethyl]pyrazin-2(1H)-one]

Test system: not given
Experiment: not given
Conditions: not given

SMILES | melting point
O=c1c(N2CCNCC2)nccn1CCOc1cccc([N+](=O)[O-])c1 [Example 23, 1-[2-(3-Nitrophenoxy)ethyl]-3-(1-piperazinyl)-2(1H)-pyrazinone] | 171 °C
N#Cc1cccc(OCCn2ccnc(N3CCNCC3)c2=O)c1 [Example 7, 1-[2-(3-Cyanophenoxy)ethyl]-3-(1-piperazinyl)-2(1H)-pyrazinone] | 49 to 52 °C
O=c1c(N2CCNCC2)nccn1CCOc1cc(F)c(F)cc1F (as salt: hydrochloride) [Example 3, 3-(1-Piperazinyl)-1-[2-(2,4,5-trifluorophenoxy)ethyl]-2(1H)-pyrazinone] | 193 to 195 °C
O=c1c(N2CCNCC2)nccn1CCOc1noc2ccccc12 (as salt: hydrochloride) [Example 9, 1-[2-(1,2-Benzisoxazol-3-yloxy)ethyl]-3-(1-piperazinyl)-2(1H)-pyrazinone] | 174 to 176 °C
O=c1c(N2CCNCC2)nccn1CCOc1ccc([N+](=O)[O-])cc1F (as salt: hydrochloride) [Example 1, 1-[2-(2-Fluoro-4-nitrophenoxy)ethyl]-3-(1-piperazinyl)-2(1H)-pyrazinone] | 105 to 108 °C
CN(C)c1cccc(OCCn2ccnc(N3CCNCC3)c2=O)c1 (as salt: fumarate) [Example 20, 1-{2-[3-(N,N-Dimethylamino)phenoxy]ethyl}-3-(1-piperazinyl)-pyrazin-2(1H)-one] | 180 to 191 °C
O=c1c(N2CCNCC2)nccn1CCOc1c(F)c(F)cc(F)c1F (as salt: hydrochloride) [Example 4, 3-(1-Piperazinyl)-1-[2-(2,3,5,6-tetrafluorophenoxy)ethyl]-2(1H)-pyrazinone] | 196 to 198 °C (dec.)

Other lines, results leading:

melting point | SMILES
214 to 214.5 °C | O=c1c(N2CCN(Cc3ccccc3)CC2)nccn1CCOc1cc(F)c(F)cc1F (as salt: hydrochloride) [Example 63, 3-(4-Benzylpiperazin-1-yl)-1-[2-(2,4,5-trifluorophenoxy)ethyl]pyrazin-2(1H)-one]
113.4 to 116.6 °C (dec.) | O=c1c(N2CCNCC2)nccn1CCCCOc1cc(F)c(F)cc1F (as salt: trifluoroacetate) [Example 58, 1-[4-(2,4,5-Trifluorophenoxy)butyl]-3-(1-piperazinyl)-2(1H)-pyrazinone]
158 to 160 °C | C=CCc1ccc(OCCn2ccnc(N3CCNCC3)c2=O)c(OC)c1 (as salt: maleate) [Example 65, 1-[2-(4-Allyl-2-methoxyphenoxy)ethyl]-3-piperazin-1-ylpyrazin-2(1H)-one]
119 to 121 °C | O=c1c(N2CCNCC2)nccn1CCOc1cc(F)cc(F)c1 [Example 25, 1-[2-(3,5-Difluorophenoxy)ethyl]-3-(1-piperazinyl)-2(1H)-pyrazinone]
69 to 70 °C | O=C(c1ccccc1)c1cccc(OCCn2ccnc(N3CCNCC3)c2=O)c1 [Example 24, 1-[2-(3-Benzoylphenoxy)ethyl]-3-(1-piperazinyl)-2(1H)-pyrazinone]
137 to 139 °C | CC(c1ccccc1)N1CCN(c2nccn(CCOc3cc(F)c(F)cc3F)c2=O)CC1 (racemic) (as salt: hydrochloride) [Example 60, 3-[4-(1-Phenylethyl)piperazin-1-yl]-1-[2-(2,4,5-trifluorophenoxy)ethyl]pyrazin-2(1H)-one]
100.3 to 100.9 °C (dec.) | O=c1c(N2CCNCC2)nccn1CCCOc1cc(F)c(F)cc1F (as salt: trifluoroacetate) [Example 59, 1-[3-(2,4,5-Trifluorophenoxy)propyl]-3-(1-piperazinyl)-2(1H)-pyrazinone]
